# Key:
# HeLa cells [1] = assay: [^3H]-triptolide competition binding in HeLa cells; details: 1 or 10 μM competitor one hour before [^3H]-triptolide, HeLa cells
# Description: To gain insight into triptolide's mechanism of action Applicants sought to determine its specific binding activity utilizing a system employing [^3H]-triptolide. In addition to competition with 1 μM or 10 μM unlabeled triptolide, Applicants also measured the binding affinities of triptolide analogs (FIG. 1A). These analogs have been previously described and differ structurally from triptolide in the hydrolysis of the 12,13 epoxide (2), and formation of the ketone at the C-14 hydroxyl (3) (FIG. 1A). […] The effective interaction of these analogs with a presumed triptolide binding entity led us to their use in subsequent experiments addressing the mode of triptolide's biological functions.
# To address first the nature of triptolide binding within the cell, Applicants determined this interaction was reversible as [^3H]-triptolide labeling was out competed by subsequent addition of excess unlabeled triptolide (FIG. 2A). […] Although 25% of the total cellular counts (i.e., representing bound triptolide) were found in the cytosolic fraction, it is uncertain whether this is specific binding or simply that free triptolide had dissociated from its binding protein due to experimental manipulation during fractionation. Since the data thus far had only shown binding within whole cells, Applicants next determined if this triptolide binding protein could be further characterized and/or enriched by its association with chromatographic reagents. HeLa cells were once again labeled with [^3H]-triptolide and total cell lysates were then passed over the anion exchange resin DEAE. Batch elutions with increasing NaCl concentrations were used to disassociate interactions of variable charge. […] Importantly, Applicants also observed that [^3H]-triptolide would only bind to intact cells in culture but would not bind to any component of a total cellular lysate as assessed by interaction with the DEAE resin. Negative results for a triptolide binding interaction were also observed with DNA-cellulose and the cation exchange resin SPFF (sulphopropyl).
# Labeling studies were performed by the addition of approximately 30 nM [^3H]-triptolide directly into the culture media for one hour at 37° C. For cold competition studies, 1 μM triptolide was incubated with the cells for one hour before or after the addition of [^3H]-triptolide. Triptolide analog studies followed a similar protocol where concentrations used for competition were either 1 or 10 μM added before [^3H]-triptolide. Medium was removed and cells were washed 3× in cold PBS. Total cell lysates were prepared (150 mM NaCl, 50 mM Tris-HCl pH 7.4, 1 mM EDTA, 1% Triton X-100, and Complete protease inhibitors (Roche)) and protein was quantitated before measuring the [^3H]-triptolide binding activity via liquid scintillation.
# [2] = system: Pkd2^+/− murine cell line; assay: Viability of Pkd2^+/− cells; assay type: cell-based; details: 100 nM
# Description: Calcium response to triptolide was, thus, shown to be dependent on polycystin-2. The biological response to calcium flux was next assessed in the murine Pkd1^−/− cell line, by adding 100 nM triptolide to the cultured cells and observing cell growth over time. Within the first 24 hours of culture, a minimal number of detached cells was observed. […] In the absence of triptolide, this cell line underwent a population doubling every 48 hours. […] It is possible that additional signaling pathways are activated by triptolide when Pkd1 is expressed. […] Therefore, Applicants assessed whether the inhibition of proliferation observed was due to p21 re-expression upon triptolide treatment.
# The Pkd1^−/−(MN24), Pkd2^+/−(3B3) and Pkd2^−/−(2D2) murine cell lines were derived from knockout and transgenic mice as previously reported (Wu, et al., 1998, Cell, 93:177-88; Wu, et al., 2000, Nat. Genet, 24:75-8; Wu, et al., 2002, Hum Mol Genet, 11:1845-54). The PKD2-Rex cell line was made by stable integration of untagged PKD2 under hygromycin selection. Antibodies used included polycystin-2 (Cai, et al. 1999, J Biol Chem, 274:28557-65), cleaved (active) caspase-3 (Cell Signaling Technology) and p21 (BD Biosciences). Triptolide was obtained from Sinobest Inc. (China) and purity was 99% as determined by HPLC. DMSO was used to dissolve triptolide and was then directly added into culture media for all experiments. […]
# HeLa cells [3] = assay: HeLa cell viability by trypan blue dye exclusion; assay type: cell-based; details: 10 μM (so in the source), 48 hours
# [4] = system: Pkd1^−/− murine model of polycystic kidney disease; assay: Pkd1^−/− murine model of polycystic kidney disease, treatment during gestation; assay type: in vivo, mice
# Description: Following successful Pkd1^+/−/Pkd1^+/− matings, 0.07 mg/kg/day of triptolide or DMSO control was injected i.p. into pregnant mice until they gave birth. All pups were assessed for viability, length, developmental staging, and wet kidney weight. A total of 59 pups from DMSO treated females and 100 pups from triptolide treated females were examined for multiple parameters, such as genotypic distribution, developmental stage at time of birth, and average kidney weights (Table 1). […] Approximately 20% of all Pkd1^−/− mice were born alive from each treatment group. However, severe edematous abnormalities were obvious upon necropsy.
# As per approved IACUC animal protocol, Pkd1^+/−/Pkd1^+/− mice were mated and pregnant mice were divided into control (DMSO) or experimental (triptolide) groups. A total volume of 100 μl of PBS with no more than 5% DMSO or DMSO/0.07 mg/kg/day triptolide was injected i.p. with a 28 G ½ insulin syringe. Mice were weighed and injected starting at E10.5 until birth. All pups were examined for length and developmental staging such as whisker formation. Kidneys were harvested, weighed, and fixed in 4% paraformaldehyde before histological preparation.
# Kidneys were prepared by sagittal cross-sectioning and hematoxylin and eosin staining. All kidneys were photographed under the same magnification (4×) and cystic burden was computed using Image J analysis software (NIH). The area of cysts within the total area of the kidney (pixels) was calculated as a final percentage of cystic burden in the kidney. Immunohistochemical analysis of active caspase-3 was completed as per manufacturer's protocol.
# adult animal = assay: Tolerability in adult animal; assay type: in vivo
# Source text: Since ADPKD has no proven therapeutic cure or treatment, Applicants believe it is encouraging as a preliminary step to observe triptolide-mediated growth arrest and attenuation of cyst progression. […] In summary, Applicants have established a novel pathway for triptolide mediated calcium release in a polycystin-2 dependent pathway that can reduce cystic burden in the kidneys of PKD mice. It is hopeful therefore that if fully developed, triptolide would be an ideal candidate for drug therapy as its history as an herbal therapy has already shown it to be well tolerated in humans.
# [5] = 0.07 mg/kg/day i.p. to pregnant mice, E10.5 until birth
smiles,measurement,setting,value
"CC(C)[C@]12O[C@H]1[C@@H]1O[C@]13[C@]1(O[C@H]1C[C@H]1C4=C(CC[C@@]13C)C(=O)OC4)[C@@H]2O [triptolide, Triptolide]",displacement of [^3H]-triptolide binding,HeLa cells [1],significantly competed
same,cell death,[2],rapid cell death within 24 hours
same,cell proliferation and cell death,HeLa cells [3],inhibited cell proliferation but did not induce cell death
same,Alive Pkd1^−/− (birth) (number),[4]; [5],4
same,Alive Pkd1^−/− (birth) (percent),[4]; [5],Approximately 20%
same,Alive Pkd1^−/− (birth) (percent),"[4]; 0.07 mg/kg/day i.p. to pregnant mice, E10.5 until birth, listed as Triptolide",22%
same,diameter of cyst lumens on average,[4]; Pkd1^−/− kidneys,smaller
same,active caspase-3 immunoreactivity in kidney sections,"[4]; Pkd1^−/− kidneys, IHC",did not show any significant activation of the caspase pathway
same,kidney morphology,"[4]; mouse, in vivo",normal morphology
same,dose that did not adversely affect health,adult animal,greater than 0.15 mg/kg/day
